{
  "source": "ChEMBL document CHEMBL1201862",
  "about": "“PubChem BioAssay data set” (2004)",
  "key": {"[1]": {"target": "T1, Tyrosine-protein phosphatase non-receptor type 7 (Homo sapiens, UniProt P35236)", "T1 sequence (P35236 whole entry)": "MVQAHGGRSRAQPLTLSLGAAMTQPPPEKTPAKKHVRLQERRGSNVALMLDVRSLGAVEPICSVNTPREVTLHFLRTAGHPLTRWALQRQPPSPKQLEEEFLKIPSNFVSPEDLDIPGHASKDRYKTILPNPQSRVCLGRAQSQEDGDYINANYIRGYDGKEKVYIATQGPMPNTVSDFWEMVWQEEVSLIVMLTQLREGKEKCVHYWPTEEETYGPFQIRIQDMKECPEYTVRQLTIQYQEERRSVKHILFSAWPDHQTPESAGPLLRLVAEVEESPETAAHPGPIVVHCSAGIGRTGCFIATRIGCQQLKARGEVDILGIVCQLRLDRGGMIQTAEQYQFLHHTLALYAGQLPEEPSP", "type": "functional"}, "[2]": {"target": "T2, Tyrosine-protein phosphatase non-receptor type 22 (Homo sapiens, UniProt Q9Y2R2)", "T2 sequence (Q9Y2R2 whole entry)": "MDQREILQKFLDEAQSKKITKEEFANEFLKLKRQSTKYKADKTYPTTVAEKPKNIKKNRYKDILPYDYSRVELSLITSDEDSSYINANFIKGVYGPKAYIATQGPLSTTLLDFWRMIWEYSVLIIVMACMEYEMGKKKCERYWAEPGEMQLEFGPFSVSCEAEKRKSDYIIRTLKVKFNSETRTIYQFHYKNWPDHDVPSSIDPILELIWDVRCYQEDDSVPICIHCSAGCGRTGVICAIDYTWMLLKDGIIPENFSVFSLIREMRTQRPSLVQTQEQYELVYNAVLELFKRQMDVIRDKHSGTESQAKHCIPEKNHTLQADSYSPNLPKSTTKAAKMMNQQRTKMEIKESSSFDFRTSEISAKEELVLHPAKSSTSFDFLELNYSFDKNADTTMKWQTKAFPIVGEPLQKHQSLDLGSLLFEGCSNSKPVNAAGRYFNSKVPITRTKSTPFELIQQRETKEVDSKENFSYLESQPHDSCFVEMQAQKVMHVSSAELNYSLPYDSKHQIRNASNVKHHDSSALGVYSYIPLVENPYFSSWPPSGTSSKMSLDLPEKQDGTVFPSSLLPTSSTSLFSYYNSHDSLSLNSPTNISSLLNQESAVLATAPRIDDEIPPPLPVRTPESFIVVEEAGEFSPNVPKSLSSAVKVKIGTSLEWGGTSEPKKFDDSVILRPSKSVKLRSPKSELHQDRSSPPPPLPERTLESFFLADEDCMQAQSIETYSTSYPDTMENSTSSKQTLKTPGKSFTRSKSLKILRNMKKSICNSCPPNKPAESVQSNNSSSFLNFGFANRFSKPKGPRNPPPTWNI", "type": "functional"}, "[3]": {"target": "T2, Tyrosine-protein phosphatase non-receptor type 22", "type": "functional", "remark": "listed apart in the source"}, "[4]": {"experiment": "C. albicans growth with fluconazole, confirmation, fluorescence, retest (AID 2467)", "type": "functional, cell-based"}, "[5]": {"tested_on": "BJ", "experiment": "cells", "type": "functional, cell-based", "details": "Homo sapiens"}, "[6]": {"experiment": "NIH-3T3 fibroblast cytotoxicity, dose response, cytotoxicity control, cell-based, fluorescence, Alamar Blue, secondary assay (AID 2327);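 further: NIH-3T3 mouse fibroblasts cultured with fluconazole at 8 µg/mL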", "type": "functional"}, "[7]": {"experiment": "cytotoxicity toward DRD oncogenic fibroblasts, dose response, cell-based, non-viral oncogenic, luminescence (AID 1934)", "type": "functional", "details": "Homo sapiens"}, "[8]": {"tested_on": "BJ", "experiment": "cytotoxicity toward BJ-TERT fibroblasts, dose response, cell-based, RAS-independent, luminescence (AID 1933)", "type": "functional", "details": "Homo sapiens"}, "[9]": {"target": "G-protein coupled receptor 55 (Homo sapiens, UniProt Q9Y2T6)", "sequence (Q9Y2T6 whole entry)": "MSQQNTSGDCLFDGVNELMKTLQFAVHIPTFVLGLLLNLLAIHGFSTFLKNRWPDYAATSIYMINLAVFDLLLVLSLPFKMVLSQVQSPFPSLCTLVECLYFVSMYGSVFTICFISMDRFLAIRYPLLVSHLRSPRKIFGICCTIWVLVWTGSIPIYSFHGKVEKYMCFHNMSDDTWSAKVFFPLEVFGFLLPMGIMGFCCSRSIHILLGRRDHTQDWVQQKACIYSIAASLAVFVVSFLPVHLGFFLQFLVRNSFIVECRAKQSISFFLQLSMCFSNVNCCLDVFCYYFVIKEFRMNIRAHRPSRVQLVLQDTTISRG", "experiment": "GPR55 antagonists, SAR follow-up, counter-screen for GPR35 antagonist project, imaging, image-based (AID 2397)", "type": "functional"}, "[10]": {"tested_on": "INS1", "experiment": "beta cell apoptosis inhibitors, cytokine rescue, dose response, luminescence, retest (AID 449756);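 further: cell death triggered by IL-1 beta plus TNF-alpha plus IFN-gamma mixture; protective hits raise ATP signal compared with cytokine alone wells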", "type": "functional, cell-based", "details": "Rattus norvegicus"}, "[11]": {"tested_on": "BJ", "experiment": "cytotoxicity toward BJ-TERT-LT-ST fibroblasts, dose response, cell-based, RAS-independent, luminescence (AID 1935);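 further: BJ fibroblasts immortalized with TERT plus LT and ST oncogenes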", "type": "functional", "details": "Homo sapiens"}, "[12]": {"target": "SUMO E1/E2 (Homo sapiens, UniProt P63279+Q9UBE0+Q9UBT2)", "sequence (Q9UBE0 whole entry)": "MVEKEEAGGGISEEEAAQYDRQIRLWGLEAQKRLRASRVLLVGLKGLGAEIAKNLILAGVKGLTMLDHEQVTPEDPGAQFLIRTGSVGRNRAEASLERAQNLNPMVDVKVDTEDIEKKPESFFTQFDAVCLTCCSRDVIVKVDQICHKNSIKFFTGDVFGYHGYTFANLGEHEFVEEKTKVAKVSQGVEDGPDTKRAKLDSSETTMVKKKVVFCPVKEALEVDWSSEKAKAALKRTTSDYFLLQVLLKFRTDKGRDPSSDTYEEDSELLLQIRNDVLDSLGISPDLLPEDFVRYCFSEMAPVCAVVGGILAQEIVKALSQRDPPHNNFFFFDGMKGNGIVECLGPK", "sequence (Q9UBT2 whole entry)": "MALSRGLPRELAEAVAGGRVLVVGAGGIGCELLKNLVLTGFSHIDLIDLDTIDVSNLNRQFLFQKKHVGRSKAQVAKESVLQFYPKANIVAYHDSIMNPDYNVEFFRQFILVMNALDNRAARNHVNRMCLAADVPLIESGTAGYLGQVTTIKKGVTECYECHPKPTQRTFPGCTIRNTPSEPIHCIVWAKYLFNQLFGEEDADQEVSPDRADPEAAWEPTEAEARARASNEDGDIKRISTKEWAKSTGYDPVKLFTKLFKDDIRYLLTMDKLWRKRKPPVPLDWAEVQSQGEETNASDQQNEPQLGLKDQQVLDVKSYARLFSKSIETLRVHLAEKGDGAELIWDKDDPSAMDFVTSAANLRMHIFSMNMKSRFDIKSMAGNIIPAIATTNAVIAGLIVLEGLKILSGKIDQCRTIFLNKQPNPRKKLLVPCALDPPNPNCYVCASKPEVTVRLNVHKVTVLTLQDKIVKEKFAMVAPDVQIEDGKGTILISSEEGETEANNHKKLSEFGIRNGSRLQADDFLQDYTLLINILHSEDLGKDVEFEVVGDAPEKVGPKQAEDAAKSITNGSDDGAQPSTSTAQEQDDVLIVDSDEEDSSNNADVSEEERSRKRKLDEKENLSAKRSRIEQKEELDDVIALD", "sequence (P63279 whole entry)": "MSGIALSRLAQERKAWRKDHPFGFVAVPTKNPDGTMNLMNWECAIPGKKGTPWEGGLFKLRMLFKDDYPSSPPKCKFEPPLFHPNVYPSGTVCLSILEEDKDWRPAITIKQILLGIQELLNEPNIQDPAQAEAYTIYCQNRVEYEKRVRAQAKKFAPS", "experiment": "SAR analysis of SUMOylation using HTRF in an in-Vitro dose response assay. [Related pubchem assays (depositor defined):AID2006, AID2011, AID2018, AID2069, AID2658]", "type": "functional"}},
  "note": "The source made the active and inactive calls.",
  "data": [
    {"smiles": "O=C(c1ccncc1)N1CCN(C(=O)c2ccncc2)CC1", "values": [
      {"measurement": "IC50", "setting": "[1]", "value": "> 79.4 µM (inactive)"},
      {"measurement": "IC50", "setting": "[2]", "value": "> 79.4 µM (inactive)"},
      {"measurement": "IC50", "setting": "[3]", "value": "> 79.4 µM (inactive)"}
    ]},
    {"smiles": "Cn1cc(/C=C/c2cc[n+](C)cc2)c2cc(Cl)ccc21", "values": [
      {"measurement": "EC50", "setting": "[4]", "value": "1.29 µM (active)"},
      {"measurement": "EC50", "setting": "[5]", "value": "16.2 µM (active)"},
      {"measurement": "EC50", "setting": "[6]", "value": "> 150 µM (inactive)"},
      {"measurement": "EC50", "setting": "[7]", "value": "22.1 µM (inconclusive)"},
      {"measurement": "EC50", "setting": "[8]", "value": "9.8 µM (active)"},
      {"measurement": "IC50", "setting": "[9]", "value": "3.42 µM (active)"},
      {"measurement": "AC50", "setting": "[10]", "value": "4.33 µM (active)"},
      {"measurement": "EC50", "setting": "[11]", "value": "> 150 µM (not active)"}
    ]},
    {"smiles": "S=c1[nH]nc(-c2cc(-c3ccccc3)[nH]n2)n1N=Cc1ccc(Cl)c(Cl)c1", "values": [
      {"measurement": "IC50", "setting": "[12]", "value": "> 100 µM (inactive)"}
    ]}
  ]
}
